For assay [1], the target named is RAC-alpha serine/threonine-protein kinase (Homo sapiens) (UniProt P31749). As to the kind of experiment: Inhibition of PKB/Akt at 10 uM. The arrangement: scale not given: the % may be the effect or the level left.
Assay [2] concerns the target Receptor tyrosine-protein kinase erbB-2 (Homo sapiens) (UniProt P04626). As to the kind of experiment: Inhibition of ErbB2/Her2 at 10 uM. More on the design: scale not given: the % may be the effect or the level left.
Assay [3] addresses Cyclin-dependent kinase 2 (Homo sapiens) (UniProt P24941). Description: Inhibition of Cdk2 at 10 uM. The arrangement: scale not given: the % may be the effect or the level left.
Assay [4] is filed under the species Homo sapiens. As to the kind of experiment: Inhibition of InR at 10 uM. The arrangement: scale not given: the % may be the effect or the level left.
Assay [5] concerns the target Glycogen synthase kinase-3 beta (Homo sapiens) (UniProt P49841). As to the kind of experiment: Inhibition of GSK3-beta at 10 uM. The arrangement: scale not given: the % may be the effect or the level left.
Assay [6] concerns the target Hepatocyte growth factor receptor (Homo sapiens) (UniProt P08581). Description: Inhibition of cMet at 10 uM. The arrangement: scale not given: the % may be the effect or the level left.
In assay [7] the target is Vascular endothelial growth factor receptor 3 (Homo sapiens) (UniProt P35916). As to the kind of experiment: Inhibition of Flt4 at 10 uM. The arrangement: scale not given: the % may be the effect or the level left.
For assay [8], the target named is Vascular endothelial growth factor receptor 1 (Homo sapiens, UniProt P17948). Description: Inhibition of VEGFR1 assessed as inhibition of phosphorylation in presence of 2 uM ATP by HTRF assay. The assay is classed as functional. For orientation: In TR-FRET formats the signal depends on donor and acceptor labels being close together.
Assay [9] has as its target Insulin-like growth factor 1 receptor (Homo sapiens) (UniProt P08069). Description: Inhibition of IGF1R at 10 uM. More on the design: scale not given: the % may be the effect or the level left.
The species entered for assay [10] is Homo sapiens. As to the kind of experiment: Inhibition of PKA at 10 uM. More on the design: scale not given: the % may be the effect or the level left.
In assay [11] the target is Receptor-type tyrosine-protein kinase FLT3 (Homo sapiens) (UniProt P36888). Description: Inhibition of Flt3 at 10 uM. The arrangement: scale not given: the % may be the effect or the level left.
Receptor-type tyrosine-protein kinase FLT3 (Homo sapiens), sequence (P36888 whole entry): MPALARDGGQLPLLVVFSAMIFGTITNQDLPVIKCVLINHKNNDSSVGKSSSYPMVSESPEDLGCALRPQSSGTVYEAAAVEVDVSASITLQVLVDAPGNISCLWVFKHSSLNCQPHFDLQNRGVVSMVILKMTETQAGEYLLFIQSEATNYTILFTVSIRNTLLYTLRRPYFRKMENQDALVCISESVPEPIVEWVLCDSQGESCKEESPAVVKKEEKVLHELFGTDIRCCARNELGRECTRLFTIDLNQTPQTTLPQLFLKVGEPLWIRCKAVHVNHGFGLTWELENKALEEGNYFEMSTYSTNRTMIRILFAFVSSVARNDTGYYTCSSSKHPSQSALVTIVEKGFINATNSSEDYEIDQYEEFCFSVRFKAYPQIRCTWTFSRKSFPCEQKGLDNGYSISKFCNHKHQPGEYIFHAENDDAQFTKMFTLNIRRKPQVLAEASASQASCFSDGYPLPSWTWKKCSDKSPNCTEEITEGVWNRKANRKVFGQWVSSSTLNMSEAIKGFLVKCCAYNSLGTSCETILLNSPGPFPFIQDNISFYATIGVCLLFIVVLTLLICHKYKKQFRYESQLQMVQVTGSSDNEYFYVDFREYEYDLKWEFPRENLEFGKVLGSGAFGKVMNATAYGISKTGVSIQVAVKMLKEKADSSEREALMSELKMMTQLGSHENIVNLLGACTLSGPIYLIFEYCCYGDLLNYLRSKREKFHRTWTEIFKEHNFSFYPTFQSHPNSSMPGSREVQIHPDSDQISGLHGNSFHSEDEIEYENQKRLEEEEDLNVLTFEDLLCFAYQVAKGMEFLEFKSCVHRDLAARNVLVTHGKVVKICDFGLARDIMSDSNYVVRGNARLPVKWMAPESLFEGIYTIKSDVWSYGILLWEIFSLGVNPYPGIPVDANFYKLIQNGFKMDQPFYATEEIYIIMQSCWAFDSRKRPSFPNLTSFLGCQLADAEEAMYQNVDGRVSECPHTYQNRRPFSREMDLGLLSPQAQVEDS
In assay [12] the target is RAF proto-oncogene serine/threonine-protein kinase (Homo sapiens) (UniProt P04049). Description: Inhibition of Raf1 at 10 uM. The arrangement: scale not given: the % may be the effect or the level left.
RAF proto-oncogene serine/threonine-protein kinase (Homo sapiens), sequence (P04049 whole entry): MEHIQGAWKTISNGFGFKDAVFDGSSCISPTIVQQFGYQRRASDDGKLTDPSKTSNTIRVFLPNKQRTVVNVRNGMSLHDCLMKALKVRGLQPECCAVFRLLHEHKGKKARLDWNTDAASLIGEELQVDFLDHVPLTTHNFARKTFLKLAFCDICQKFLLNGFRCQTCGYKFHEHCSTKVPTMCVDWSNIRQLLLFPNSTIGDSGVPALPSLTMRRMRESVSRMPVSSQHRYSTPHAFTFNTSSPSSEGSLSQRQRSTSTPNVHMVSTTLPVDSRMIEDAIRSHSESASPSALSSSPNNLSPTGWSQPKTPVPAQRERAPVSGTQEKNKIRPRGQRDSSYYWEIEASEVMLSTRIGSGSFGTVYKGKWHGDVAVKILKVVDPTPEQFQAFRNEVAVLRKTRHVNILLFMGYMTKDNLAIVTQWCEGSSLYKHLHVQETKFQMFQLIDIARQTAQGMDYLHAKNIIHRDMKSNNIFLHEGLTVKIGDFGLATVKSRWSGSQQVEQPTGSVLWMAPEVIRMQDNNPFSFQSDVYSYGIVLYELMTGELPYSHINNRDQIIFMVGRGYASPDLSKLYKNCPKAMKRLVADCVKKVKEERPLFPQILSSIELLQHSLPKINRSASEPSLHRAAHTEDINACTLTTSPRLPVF
For assay [13], the target named is T1, Vascular endothelial growth factor receptor 2 (Homo sapiens, UniProt P35968). Description: Inhibition of VEGFR2 assessed as inhibition of phosphorylation in presence of 2 uM ATP by HTRF assay. It counts as functional.
The species named for assay [14] is Homo sapiens. As to the kind of experiment: Inhibition of Cdk1 at 10 uM. The arrangement: scale not given: the % may be the effect or the level left.
For assay [15], the target named is Epidermal growth factor receptor (Homo sapiens) (UniProt P00533). Description: Inhibition of ErbB1 at 10 uM. The arrangement: scale not given: the % may be the effect or the level left.
Epidermal growth factor receptor (Homo sapiens), sequence (P00533 whole entry): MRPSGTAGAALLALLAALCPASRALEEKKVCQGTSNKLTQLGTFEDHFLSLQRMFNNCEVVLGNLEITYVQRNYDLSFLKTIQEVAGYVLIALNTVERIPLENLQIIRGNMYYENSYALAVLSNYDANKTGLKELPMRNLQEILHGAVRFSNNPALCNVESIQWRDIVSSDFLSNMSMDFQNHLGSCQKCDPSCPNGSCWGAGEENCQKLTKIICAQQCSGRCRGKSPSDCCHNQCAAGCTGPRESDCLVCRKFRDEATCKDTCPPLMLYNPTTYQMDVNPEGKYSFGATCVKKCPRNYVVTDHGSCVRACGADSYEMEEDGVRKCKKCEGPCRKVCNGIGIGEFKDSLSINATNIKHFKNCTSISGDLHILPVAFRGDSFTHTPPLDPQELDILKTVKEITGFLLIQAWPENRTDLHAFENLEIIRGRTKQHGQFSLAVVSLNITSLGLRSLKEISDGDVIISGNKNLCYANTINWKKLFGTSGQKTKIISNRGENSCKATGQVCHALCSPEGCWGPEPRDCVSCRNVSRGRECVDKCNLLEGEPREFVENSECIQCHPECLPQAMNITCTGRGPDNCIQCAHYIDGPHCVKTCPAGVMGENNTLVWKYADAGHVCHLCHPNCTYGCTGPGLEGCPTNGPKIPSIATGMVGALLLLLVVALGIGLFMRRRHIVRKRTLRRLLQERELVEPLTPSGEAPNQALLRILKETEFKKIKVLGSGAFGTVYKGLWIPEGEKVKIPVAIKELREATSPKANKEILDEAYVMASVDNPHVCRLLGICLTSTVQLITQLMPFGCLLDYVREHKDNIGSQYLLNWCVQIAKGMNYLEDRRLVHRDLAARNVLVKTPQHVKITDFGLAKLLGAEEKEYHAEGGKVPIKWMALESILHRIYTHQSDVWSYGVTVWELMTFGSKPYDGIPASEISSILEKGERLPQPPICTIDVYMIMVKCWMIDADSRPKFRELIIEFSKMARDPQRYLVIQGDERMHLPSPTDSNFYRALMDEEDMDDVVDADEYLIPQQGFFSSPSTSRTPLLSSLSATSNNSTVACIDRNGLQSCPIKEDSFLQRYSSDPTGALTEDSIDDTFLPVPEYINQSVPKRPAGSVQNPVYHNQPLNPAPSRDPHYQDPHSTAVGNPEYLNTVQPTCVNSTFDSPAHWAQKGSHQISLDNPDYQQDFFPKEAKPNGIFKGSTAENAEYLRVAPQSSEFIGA
For assay [16], the target named is Fibroblast growth factor receptor 1 (Homo sapiens) (UniProt P11362). As to the kind of experiment: Inhibition of FGFR1 at 10 uM. More on the design: scale not given: the % may be the effect or the level left.
Assay [17] is filed under the species Homo sapiens. Description: Inhibition of bcr-Abl at 10 uM. The arrangement: scale not given: the % may be the effect or the level left.
The target in assay [18] is T1, Vascular endothelial growth factor receptor 2. As to the kind of experiment: Inhibition of VEGFR2 assessed as inhibition of phosphorylation in human 293 cells by cell-based ELISA. The assay is classed as functional, HEK293. (In general: In an ELISA, binding on a coated surface is turned into a signal by an enzyme label.)

Nine compounds from ChEMBL document CHEMBL1148870, “Novel inhibitors of VEGF receptors-1 and -2 based on azole-5-carboxamide templates” (Bioorg Med Chem Lett, 2007) can be followed below.

For orientation: IC50 means the concentration needed to halve the response being measured.

Receptor tyrosine-protein kinase erbB-2 (Homo sapiens), sequence (P04626 whole entry): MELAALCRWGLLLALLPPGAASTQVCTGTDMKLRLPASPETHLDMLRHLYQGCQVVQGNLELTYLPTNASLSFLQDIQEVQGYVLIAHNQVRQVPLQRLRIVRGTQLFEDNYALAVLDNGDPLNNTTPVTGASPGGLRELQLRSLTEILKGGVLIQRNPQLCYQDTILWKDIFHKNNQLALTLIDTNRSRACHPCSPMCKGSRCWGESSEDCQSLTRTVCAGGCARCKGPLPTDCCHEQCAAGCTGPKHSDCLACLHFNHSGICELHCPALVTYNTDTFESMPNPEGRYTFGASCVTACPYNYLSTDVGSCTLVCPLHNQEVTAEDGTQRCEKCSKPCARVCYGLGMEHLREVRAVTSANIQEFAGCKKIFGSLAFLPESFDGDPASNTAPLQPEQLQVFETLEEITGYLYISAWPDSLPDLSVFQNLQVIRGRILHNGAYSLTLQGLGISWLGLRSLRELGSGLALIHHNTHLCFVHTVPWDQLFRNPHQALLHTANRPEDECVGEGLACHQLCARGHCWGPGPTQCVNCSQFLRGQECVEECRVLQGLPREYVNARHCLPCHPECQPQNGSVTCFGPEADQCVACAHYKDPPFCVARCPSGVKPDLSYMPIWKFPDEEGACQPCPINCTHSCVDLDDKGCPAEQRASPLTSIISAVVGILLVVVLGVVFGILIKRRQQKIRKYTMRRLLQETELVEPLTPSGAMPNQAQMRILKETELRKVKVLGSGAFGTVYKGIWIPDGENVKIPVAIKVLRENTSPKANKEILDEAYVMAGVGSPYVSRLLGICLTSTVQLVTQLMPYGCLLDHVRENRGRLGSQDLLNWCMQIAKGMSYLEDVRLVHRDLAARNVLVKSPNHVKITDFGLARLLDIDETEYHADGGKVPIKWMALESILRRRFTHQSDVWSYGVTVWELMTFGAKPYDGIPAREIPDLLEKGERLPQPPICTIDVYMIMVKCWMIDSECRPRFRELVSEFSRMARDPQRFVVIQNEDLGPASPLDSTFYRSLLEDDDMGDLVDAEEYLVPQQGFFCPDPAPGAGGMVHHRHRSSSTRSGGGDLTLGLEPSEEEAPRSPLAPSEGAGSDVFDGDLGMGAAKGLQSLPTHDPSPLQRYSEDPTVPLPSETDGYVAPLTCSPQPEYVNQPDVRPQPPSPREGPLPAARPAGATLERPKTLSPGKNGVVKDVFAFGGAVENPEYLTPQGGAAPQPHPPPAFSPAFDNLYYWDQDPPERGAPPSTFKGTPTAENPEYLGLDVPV
RAC-alpha serine/threonine-protein kinase (Homo sapiens), sequence (P31749 whole entry): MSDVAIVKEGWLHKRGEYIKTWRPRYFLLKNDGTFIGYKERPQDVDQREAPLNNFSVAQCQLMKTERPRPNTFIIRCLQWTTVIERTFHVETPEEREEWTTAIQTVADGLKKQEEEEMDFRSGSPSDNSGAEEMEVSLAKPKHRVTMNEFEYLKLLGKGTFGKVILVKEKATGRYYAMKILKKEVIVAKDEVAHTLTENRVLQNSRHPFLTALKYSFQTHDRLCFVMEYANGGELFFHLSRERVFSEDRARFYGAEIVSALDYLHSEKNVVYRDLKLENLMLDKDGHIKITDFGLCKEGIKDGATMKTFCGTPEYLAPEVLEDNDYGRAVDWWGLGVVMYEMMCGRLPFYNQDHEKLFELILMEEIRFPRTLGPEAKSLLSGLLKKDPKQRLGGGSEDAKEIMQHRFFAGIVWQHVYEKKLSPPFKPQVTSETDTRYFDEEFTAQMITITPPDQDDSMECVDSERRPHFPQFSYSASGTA
Glycogen synthase kinase-3 beta (Homo sapiens), sequence (P49841 whole entry, looked up): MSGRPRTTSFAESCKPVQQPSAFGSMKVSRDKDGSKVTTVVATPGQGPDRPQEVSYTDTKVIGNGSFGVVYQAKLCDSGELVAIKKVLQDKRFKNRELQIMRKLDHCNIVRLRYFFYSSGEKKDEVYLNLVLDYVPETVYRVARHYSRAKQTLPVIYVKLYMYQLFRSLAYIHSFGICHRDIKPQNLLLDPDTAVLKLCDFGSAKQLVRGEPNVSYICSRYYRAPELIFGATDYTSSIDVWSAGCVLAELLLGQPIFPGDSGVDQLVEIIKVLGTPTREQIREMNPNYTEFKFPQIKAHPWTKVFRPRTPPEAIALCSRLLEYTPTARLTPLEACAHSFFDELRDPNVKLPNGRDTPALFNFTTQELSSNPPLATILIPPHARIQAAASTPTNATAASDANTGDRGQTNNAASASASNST

As to `CC(C)(C)c1ccc(NC(=O)c2nnnn2CCc2ccncc2)cc1`, the Activity (in assay [1]; in [2]; in assay [3]; in the assay filed under Homo sapiens [4]; in assay [5]; in assay [6]) was more than 30% each time. Moreover, the Activity (in [7]; in [9]; in the assay listed under Homo sapiens [10]; in assay [11]; in assay [12]; in the assay filed under Homo sapiens [14]) was more than 30% each time. Besides, the figures for the Activity (in [15]; in [16]; in the assay listed under Homo sapiens [17]) were less than 30%, more than 30% and more than 30%, respectively. In addition, the concentration for half-maximal inhibition (IC50) in [8], in [13] and in [18] was more than 10000 nM in each case.

Turning to `O=C(Nc1ccc2[nH]ncc2c1)c1ccnn1CCc1ccncc1`, the Activity (in [1]; in assay [2]; in assay [3]; in the assay filed under Homo sapiens [4]; in assay [5]; in [6]) was more than 30% in each case. Also, the Activity (in assay [7]; in [9]; in the assay listed under Homo sapiens [10]; in assay [11]; in [12]; in the assay listed under Homo sapiens [14]) was more than 30% throughout. In addition, the Activity in assay [15] is less than 30%; in assay [16], more than 30%; in the assay listed under Homo sapiens [17], more than 30%. Further, the 50% inhibitory concentration (IC50) in assay [8] was more than 10000 nM; in assay [13] it was 5150 nM; in assay [18], more than 10000 nM.

As for `O=C(Nc1ccc(Cl)c(C(F)(F)F)c1)c1ccnn1CCc1ccncc1`, the Activity (in [1]; in [2]; in assay [3]; in the assay listed under Homo sapiens [4]; in [5]; in [6]) was more than 30% in each case. Besides, the Activity (in [7]; in assay [9]; in the assay listed under Homo sapiens [10]; in [11]; in assay [12]; in the assay filed under Homo sapiens [14]) was more than 30% each time. Also, the results for the Activity (in assay [15]; in assay [16]; in the assay filed under Homo sapiens [17]) were less than 30%, more than 30% and more than 30%, respectively. Also, the results for the IC50 in assay [8], in [13] and in [18] were 2330 nM, 750 nM and 450 nM, respectively.

As for `O=C(Nc1ccc(OC(F)(F)F)cc1)c1nc2ccccc2n1CCc1ccncc1`, the Activity (in [1]; in assay [2]; in assay [3]; in the assay listed under Homo sapiens [4]; in assay [5]; in assay [6]) was more than 30% in each case. Also, the Activity (in assay [7]; in assay [9]; in the assay listed under Homo sapiens [10]; in assay [11]; in assay [12]; in the assay filed under Homo sapiens [14]) was more than 30% each time. Further, the Activity is less than 30% in [15], more than 30% in assay [16] and more than 30% in the assay listed under Homo sapiens [17]. Further, the IC50 in assay [8], in [13] and in assay [18] was more than 10000 nM in each case.

For `Cc1cc(C(=O)Nc2ccc(Cl)cc2)n(CCc2ccncc2)n1`, the Activity (in [1]; in [2]; in [3]; in the assay filed under Homo sapiens [4]; in assay [5]; in assay [6]) was more than 30% throughout. In addition, the Activity (in assay [7]; in assay [9]; in the assay filed under Homo sapiens [10]; in assay [11]; in assay [12]; in the assay listed under Homo sapiens [14]) was more than 30% each time. In addition, the Activity in [15] is less than 30%; in [16], more than 30%; in the assay listed under Homo sapiens [17], more than 30%. Moreover, the IC50 stood at 1220 nM in assay [8], 780 nM in assay [13] and 2540 nM in assay [18].

With `O=C(Nc1ccc(Cl)cc1)c1ccnn1CCc1c[nH]cn1`, the Activity (in assay [1]; in assay [2]; in [3]; in the assay filed under Homo sapiens [4]; in assay [5]; in [6]) was more than 30% in each case. Further, the Activity (in assay [7]; in [9]; in the assay filed under Homo sapiens [10]; in [11]; in assay [12]; in the assay listed under Homo sapiens [14]) was more than 30% each time. Further, the Activity is less than 30% in assay [15], more than 30% in [16] and more than 30% in the assay filed under Homo sapiens [17]. The IC50 in assay [8], in assay [13] and in assay [18] was more than 10000 nM in each case.

`O=C(Nc1ccc(C(F)(F)F)cc1)c1nccn1CCc1ccncc1`: the Activity (in assay [1]; in assay [2]; in assay [3]; in the assay filed under Homo sapiens [4]; in assay [5]; in [6]) was more than 30% each time. Besides, the Activity (in [7]; in assay [9]; in the assay filed under Homo sapiens [10]; in assay [11]; in [12]; in the assay filed under Homo sapiens [14]) was more than 30% in each case. Moreover, the Activity in [15] was less than 30%; in assay [16], more than 30%; in the assay filed under Homo sapiens [17] it was more than 30%. Also, the IC50 in assay [8] stood at 790 nM; in assay [13], 470 nM; in assay [18], 1660 nM.

Turning to `O=C(Nc1ccc(Cl)cc1)c1nnnn1CCc1ccncc1`, the Activity (in assay [1]; in assay [2]; in [3]; in the assay listed under Homo sapiens [4]; in assay [5]; in assay [6]) was more than 30% each time. Further, the Activity (in [7]; in assay [9]; in the assay listed under Homo sapiens [10]; in assay [11]; in assay [12]; in the assay filed under Homo sapiens [14]) was more than 30% throughout. For the same compound, the Activity is less than 30% in assay [15], more than 30% in assay [16] and more than 30% in the assay filed under Homo sapiens [17]. The IC50 in [8] was determined as 890 nM; in [13], 640 nM; in assay [18], 2030 nM.

For `O=C(Nc1ccc(Cl)cc1)c1cc2ccccc2n1CCc1ccncc1`, the Activity (in assay [1]; in [2]; in assay [3]; in the assay listed under Homo sapiens [4]; in assay [5]; in assay [6]) was more than 30% each time. Moreover, the Activity (in assay [7]; in [9]; in the assay listed under Homo sapiens [10]; in assay [11]; in assay [12]; in the assay filed under Homo sapiens [14]) was more than 30% in each case. Also, the values for the Activity (in assay [15]; in assay [16]; in the assay filed under Homo sapiens [17]) were less than 30%, more than 30% and more than 30%, respectively. Further, the IC50 in [8], in assay [13] and in assay [18] was more than 10000 nM in each case.
